pIC50: −log10 of the molar value.
Legend:
[1] = test system: rat; assay: Conflict test in the rat; format: in vivo; conditions: po, 30 minutes before the 1-hour conflict test, read-out: Conflict test, rat, FSD (first significant anxiolytically-active dosage)
Description: The test apparatus is a one-key Skinner box having a feed pellet dispenser. At least 8 hungry rats are usually employed per substance and dosage for the testing of potential anxiolytics. Rats which respond to the known anxiolytic chlorodiazepoxide are used. The test substances, which are dissolved or suspended in a mixture of 10 ml of distilled water and 2 drops of Tween 80, are administered to the test animals by means of a probang 30 minutes before the 1-hour conflict test. During the test, in which each press of the key for a feed pellet is combined with a foot shock (conflict), the number key activations is registered. Each test animal serves as its own control in that it is pre-treated once with test substance and once with sodium chloride solution.
The first significant anxiolytically-active dosage (FSD) is determined with the Wilcoxon test (comparison of pairs) by comparing directly the number of key activations in the main test (feed pellet +foot shock after pre-treatment with test substance) with the number of key activations in the control test (feed pellet +foot shock after pre-treatment with sodium chloride solution).

[2] = target: central benzodiazepine receptors; assay: 3H-Flumazenil binding test in vitro; conditions: inhibition of specific binding of tritiated flumazenil, rat cortex
Description: 3H-Flumazenil binding test
The affinity of compounds of formula I to the central benzodiazepine receptors was established in vitro according to the methods described in Nature 294, 763-765 (1981) and J. Neurochemistry 37, 714-722 (1981). According to these methods, the inhibition of the binding of tritiated flumazenil to the specific benzodiazepine receptors in the cortex of rats by the respective test substances is determined. The IC50 ("50% inhibiting concentration") denotes that concentration of the respective test substance which brings about a 50 percent inhibition of the specific binding of tritiated flumazenil to the specific benzodiazepine receptors in the cortex of rats.

[3] = test system: Male DBA 2J mice; assay: Audiogenic seizures (anticonvulsive test); format: in vivo; conditions: po, 0.5 h; mouse, p.o., prevention of tonic convulsions in 50% of animals, 30 minutes before test; read-out: Audiogenic seizure, mouse, ED50
Description: The anticonvulsive properties of the compounds of formula I can be determined, for example, in the test described hereinafter.
The test apparatus is a soundproofed one-key box having a built-in sound source. Male DBA 2J mice aged 21 days and weighing 7-11 g are employed for the testing of the substances. These mice are an animal model for epilepsy in which sonic irradiation causes seizures. The test substances are employed as aqueous suspensions of different concentration and are administered to the experimental animals orally or intraperitonally in an amount of 10 ml/kg 30 minutes before the beginning of the test. The test animals are exposed for 60 seconds to a sonic irradiation of 110 dB/14 KHz. This produces in untreated animals symptoms such as racing around, cronic seizures and tonic convulsions. The ED50 value, that is, that dosage of a test substance which in :50% of the test animals prevents the tonic convulsions caused by the sonic irradiation, is determined.

[4] = test system: female mice (Charles-River); assay: Reversal of the action of meclonazepam in the rotating rod test; format: in vivo; conditions: iv, 0.5 h; mouse, i.v., after 5 mg/kg meclonazepam i.p.; 50% of animals remain on rod; read-out: Anti-meclonazepam, rotating rod, mouse, ID50
Description: Reversal of the action of meclonazepam in the rotating rod test
Test description: female mice (Charles-River, Pans) weighing 19-21 g are used, They have free access to feed and drinking water up to 1 h; before the beginning of the test. They are brought into the test laboratory at lent 30 min. before the test.
In the rotating rod test the animals are placed on a horizontally arranged, smooth metal rod having a diameter of 3 cm, which is rotated at 2 revolutions per min. Initially, the animals are given the opportunity of familiarizing themselves with the test situation for 30sec. Subsequently, those animals which succeed in remaining on the rod for at least 1 min. are selected.
Determination of the reversal of the activity of meclonazepam: 5 mg/kg of meclonazepam are administered intraperitonally to the animals as a suspension in a 0.3% aqueous Tween 80 solution. This causes an inability to stay on the rotating red, which lasts for several hours. 20 min. later, a fine suspension of the test preparation in a 0.3% Tween 80 solution in water is administered intravenously. 30 min. later, it is determined whether the animals can stay on the rod for at least I min. The dosage at which 50% of the animals are capable of remaining on the rod is determined (ID50).

Compound: Clc1cccc2c1-c1nccn1Cc1c(-c3noc(C4CC4)n3)ncn1-2 [I, 4-chloro-10-(5-cyclopropyl-1,2,4-oxadiazol-3-yl)-9H-diimidazo[1,5-a:1',2'-d][1,4]benzodiazepine]
- minimal effective dose [1]: 0.03 mg/kg
- pIC50 [2]: 9.52
- ED50 [3]: 0.00011 mg/kg

Compound: c1ccc2c(c1)-c1ncnn1Cc1c(-c3nc(C4CC4)no3)ncn1-2 [A, 10-(3-cyclopropyl-1,2,4-oxadiazol-5-yl)-9H-imidazo[1,5-a][1,2,4]triazolo[1,5-d][1,4]benzodiazepine]
- minimal effective dose [1]: 0.3 mg/kg
- pIC50 [2]: 8.89
- ED50 [4]: 1.5 mg/kg

Compound: Clc1ccc2c(c1)-c1nccn1Cc1c(-c3noc(C4CC4)n3)ncn1-2 [E, 3-chloro-10-(5-cyclopropyl-1,2,4-oxadiazol-3-yl)-9H-diimidazo[1,5-a:1',2'-d][1,4]benzodiazepine]
- minimal effective dose [1]: 1 mg/kg
- pIC50 [2]: 8.54
- ED50 [3]: 0.21 mg/kg

Compound: Clc1cccc2c1-c1nccn1Cc1c(-c3nc(C4CC4)no3)ncn1-2 [H, 4-chloro-10-(3-cyclopropyl-1,2,4-oxadiazol-5-yl)-9H-diimidazo[1,5-a:1',2'-d][1,4]benzodiazepine]
- minimal effective dose [1]: 0.001 mg/kg
- pIC50 [2]: 9.54
- ED50 [4]: 0.1 mg/kg
- ED50 [3]: 0.0039 mg/kg

Compound: Fc1ccc2c(c1)-c1ncnn1Cc1c(-c3nc(C4CC4)no3)ncn1-2 [B, 10-(3-cyclopropyl-1,2,4-oxadiazol-5-yl)-3-fluoro-9H-imidazo[1,5-a][1,2,4]triazolo[1,5-d][1,4]benzodiazepine]
- minimal effective dose [1]: 0.1 mg/kg
- pIC50 [2]: 8.60
- ED50 [4]: 0.8 mg/kg
- ED50 [3]: 0.27 mg/kg

Compound: c1ccc2c(c1)-c1ncnn1Cc1c(-c3noc(C4CC4)n3)ncn1-2 [D, 10-(5-cyclopropyl-1,2,4-oxadiazol-3-yl)-9H-imidazo[1,5-a][1,2,4]triazolo[1,5-d][1,4]benzodiazepine]
- minimal effective dose [1]: 3 mg/kg
- pIC50 [2]: 9.48
- ED50 [4]: 0.08 mg/kg
- ED50 [3]: 4.2 mg/kg

Compound: CCOCc1nc(-c2ncn3c2Cn2ncnc2-c2cc(F)ccc2-3)no1 [F, 10-[5-(ethoxymethyl)-1,2,4-oxadiazol-3-yl]-3-fluoro-9H-imidazo[1,5-a][1,2,4]triazolo[1,5-d][1,4]benzo-diazepine]
- minimal effective dose [1]: 0.1 mg/kg
- pIC50 [2]: 8.52
- ED50 [4]: 1.8 mg/kg
- ED50 [3]: 0.11 mg/kg

Compound: Fc1ccc2c(c1)-c1ncnn1Cc1c(-c3noc(C4CC4)n3)ncn1-2 [C, 10-(5-cyclopropyl-1,2,4-oxadiazol-3-yl)-3-fluoro-9H-imidazo[1,5-a][1,2,4]triazolo[1,5-d][1,4]benzodiazepine]
- minimal effective dose [1]: 0.003 mg/kg
- pIC50 [2]: 9.04
- ED50 [4]: 0.17 mg/kg
- ED50 [3]: 0.015 mg/kg

Compound: Clc1cccc2c1-c1ncnn1Cc1c(-c3noc(C4CC4)n3)ncn1-2 [G, 4-Chloro-10-(5-cyclopropyl-1,2,4-oxadiazol-3-yl)-9H-imidazo[1,5-a][1,2,4]triazolo[1,5-d][1,4]benzodiazepine]
- pIC50 [2]: 9.22
- ED50 [4]: 0.0047 mg/kg
